Data published in patent US11760984B2, “CRISPR protein inhibitors” (THE BROAD INSTITUTE, INC., priority 2017, dated 2023).
pKd: −log10 of the molar value.

Experiments:
SpCas9 = SpCas9 (Streptococcus pyogenes serotype M1, UniProt Q99ZW2); assay: Cas9 nuclease activity in EGFP disruption assay (U2OS.eGFP.PEST cells); type: cell-based; set-up: host or cells: U2OS.eGFP-PEST; details: 10, 15, 20 μM, 24 h
Protocol: (§1) Cas9 Nuclease activity in EGFP disruption assay. Approximately 200,000 U2OS.eGFP-PEST cells were nucleofected with 400 ng of SpCas9 (Addgene Plasmid #43861) and 40 ng of sgRNA (pFYF1320 EGFP Site #1, Addgene Plasmid #47511) expressing plasmids along with a Td-tomato-encoding plasmid using the SE Cell Line 4D-Nucleofector™ X Kit (Lonza) according to the manufacturer's protocol. Approximately 20,000 transfected cells/well in 3 replicates were plated in a 96-well plate (Corning® 3904). Cells were allowed to grow in the indicated amount of compound or DMSO for 24 h post transfection. Cells were then fixed using 4% paraformaldehyde and imaged with the HCS NuclearMask™ Blue Stain (Life Technologies) as the nuclear counter-staining agent. Imaging was performed with an IXM 137204 ImageXpress Automated High Content Microscope (Molecular Devices) at 10× magnification under three excitation channels (blue, green and red) with 9 acquiring sites per well. Images were analyzed in the MetaXpress software and data were plotted using GraphPad Prism 6. The Z′-value was calculated following the formula: […]
Cas9 Nuclease activity in EGFP disruption assay. In some embodiments, a quantitative human cell-based reporter assay that enables rapid quantitation of targeted nuclease activities is used to characterize off-target cleavage of CRISPR protein-based RNA guided endonucleases. In this assay, the activities of nucleases targeted to a single integrated EGFP reporter gene can be quantified by assessing loss of fluorescence signal in human U2OS.EGFP cells caused by inactivating frameshift insertion/deletion (indel) mutations introduced by error prone non-homologous end-joining (NHEJ) repair of nuclease-induced double-stranded breaks (DSBs).
as §1, with “Approximately” for “Cas9 Nuclease activity in EGFP disruption assay. Approximately”

SpCas9:gRNA complex = biological target: T1, SpCas9:gRNA complex (Streptococcus pyogenes serotype M1, UniProt Q99ZW2); assay: Bio-Layer Interferometry (BLI) of biotinylated compound with SpCas9:gRNA complex; type: binding
T1 construct: His6 (N, cleaved yes); made in house; host or cells: E. coli BL21 Star (DE3)
T1 sequence (Q99ZW2 whole entry, one chain of several): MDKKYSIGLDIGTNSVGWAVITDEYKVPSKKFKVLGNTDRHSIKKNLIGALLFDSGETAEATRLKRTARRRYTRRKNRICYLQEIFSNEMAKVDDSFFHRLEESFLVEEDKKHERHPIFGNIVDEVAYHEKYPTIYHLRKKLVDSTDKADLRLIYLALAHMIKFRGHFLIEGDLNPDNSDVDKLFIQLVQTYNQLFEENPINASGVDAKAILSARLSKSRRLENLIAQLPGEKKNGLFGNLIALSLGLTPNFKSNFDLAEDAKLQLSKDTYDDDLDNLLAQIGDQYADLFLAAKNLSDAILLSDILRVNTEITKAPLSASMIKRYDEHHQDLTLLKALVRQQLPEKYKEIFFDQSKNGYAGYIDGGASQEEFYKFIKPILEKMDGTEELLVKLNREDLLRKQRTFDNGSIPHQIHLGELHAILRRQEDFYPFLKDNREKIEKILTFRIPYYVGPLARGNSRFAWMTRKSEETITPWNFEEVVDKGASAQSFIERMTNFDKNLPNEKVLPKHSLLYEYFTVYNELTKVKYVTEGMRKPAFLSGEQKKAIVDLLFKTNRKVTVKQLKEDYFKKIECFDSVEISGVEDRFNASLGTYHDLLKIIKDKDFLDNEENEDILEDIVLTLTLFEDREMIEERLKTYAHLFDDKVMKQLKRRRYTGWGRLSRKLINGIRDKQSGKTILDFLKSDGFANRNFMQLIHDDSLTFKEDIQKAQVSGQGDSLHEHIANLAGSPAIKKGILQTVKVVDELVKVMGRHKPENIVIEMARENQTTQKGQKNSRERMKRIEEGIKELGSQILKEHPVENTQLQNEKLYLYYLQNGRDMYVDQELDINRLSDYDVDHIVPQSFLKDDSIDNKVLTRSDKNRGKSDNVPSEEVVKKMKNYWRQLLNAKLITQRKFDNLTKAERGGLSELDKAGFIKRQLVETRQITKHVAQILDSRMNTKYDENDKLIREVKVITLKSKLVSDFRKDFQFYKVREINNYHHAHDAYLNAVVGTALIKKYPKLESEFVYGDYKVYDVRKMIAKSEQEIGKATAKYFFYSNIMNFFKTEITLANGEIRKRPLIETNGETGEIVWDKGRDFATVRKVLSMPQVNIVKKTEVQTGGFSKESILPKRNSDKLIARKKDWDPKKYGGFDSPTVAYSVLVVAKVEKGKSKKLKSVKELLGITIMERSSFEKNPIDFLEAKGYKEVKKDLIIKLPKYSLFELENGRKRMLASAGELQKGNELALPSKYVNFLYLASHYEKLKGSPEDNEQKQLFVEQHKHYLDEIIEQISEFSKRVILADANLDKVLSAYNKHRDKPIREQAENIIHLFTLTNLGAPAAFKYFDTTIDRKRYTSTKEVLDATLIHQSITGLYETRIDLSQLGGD
Protocol: Compound-Cas9 interaction in BLI. The experiments were performed in a 96-well format with 180 μL reaction volume using biotinylated compound BRD7087-Biotin and streptavidin sensors. 1 μM of the biotinylated compound was loaded onto the sensors for 180 s in 20 mM Tris buffer of pH 7.4, 100 mM KCl, 5 mM MgCl2, 1 mM DTT, 0.01% Tween®. The compound loaded sensors were then allowed to associate with the different concentration of SpCas9:gRNA complex (1-0.15 μM) for 300 s followed by dissociation in the reaction buffer. Reference sensor was loaded with compound and allowed to associate and dissociate in the reaction buffer alone. The response curves were fitted with a 2:1 stoichiometric model and a global fit steady-state analysis were performed using manufacturer inbuilt protocol. The experiment was performed in three replicates.
The competitive experiments were performed using Biotin-linker fragment. In this experiment, streptavidin sensors were pre-incubated with 10 μM of Biotin-linker before dipping into a solution of either 1 μM BRD7087-Biotin or reaction buffer alone. Sensors were then allowed to associate with different concentration of SpCas9:gRNA complex or buffer alone.
Compound-Cas9 interaction in BLL The experiments were performed in a 96-well format with 180 μL reaction volume using biotinylated compound BRD7087-Biotin and streptavidin sensors. […]

SpCas9, sequence (Q99ZW2 whole entry): as the sequence (Q99ZW2 whole entry, one chain of several) above

Structure (SMILES) | potency of stereoisomers in EGFP-disruption assay compared with the parent (3aR,4S,9bR) compound (SpCas9) | pKd (SpCas9:gRNA complex; 1 μM BRD7087-Biotin on streptavidin sensors, SpCas9:gRNA 1-0.15 μM, read-out: dissociation constant (2:1 compound to Cas9 binding isotherm)) | BLI response signal in competitive experiment (SpCas9:gRNA complex; excess (10×) of biotin to compound loading)
OC[C@H]1Nc2ccc(-c3cccc(F)c3)cc2[C@@H]2[C@H]1CCN2Cc1ccncc1 [BRD0750, ((3aS,4S,9bS)-8-(3-Fluorophenyl)-1-(pyridin-4-ylmethyl)-2,3,3a,4,5,9b-hexahydro-1H-pyrrolo[3,2-c]quinolin-4-yl)methanol] | less potent |  | 
OC[C@@H]1Nc2ccc(-c3cccc(F)c3)cc2[C@H]2[C@@H]1CCN2Cc1ccncc1 [BRD2161, ((3aR,4R,9bR)-8-(3-Fluorophenyl)-1-(pyridin-4-ylmethyl)-2,3,3a,4,5,9b-hexahydro-1H-pyrrolo[3,2-c]quinolin-4-yl)methanol] | less potent |  | 
OC[C@@H]1Nc2ccc(-c3cccc(F)c3)cc2[C@@H]2[C@H]1CCN2Cc1ccncc1 [BRD5039, ((3aS,4R,9bS)-8-(3-Fluorophenyl)-1-(pyridin-4-ylmethyl)-2,3,3a,4,5,9b-hexahydro-1H-pyrrolo[3,2-c]quinolin-4-yl)methanol] | equipotent as BRD7087 |  | 
O=C(CCCC[C@@H]1SC[C@@H]2NC(=O)N[C@@H]21)NCCOCCOCCOCCC(=O)Nc1cccc(-c2ccc3c(c2)[C@H]2[C@H](CCN2Cc2ccncc2)[C@@H](CO)N3)c1 [biotin-conjugate of BRD7087, N-(2-(2-(2-(3-((3-((3aR,4S,9bR)-4-(Hydroxymethyl)-1-(pyridin-4-ylmethyl)-2,3,3a,4,5,9b-hexahydro-1H-pyrrolo[3,2-c]quinolin-8-yl)phenyl)amino)-3-oxopropoxy)ethoxy)ethoxy)ethyl)-5-((3aS,4S,6aR)-2-oxohexahydro-1H-thieno[3,4-d]imidazol-4-yl)pentanamide] |  | ~6.80 | no substantial response signal
